Assay results taken from ChEMBL document CHEMBL2331144, “Synthesis and anticancer activity of analogues of phenstatin, with a phenothiazine A-ring, as a new class of microtubule-targeting agents” (Bioorg Med Chem Lett, 2013).

Legend:
[1] = tested on: NCI-H522; experiment: Growth inhibition of human NCI-H522 cells after 48 hrs by sulforhodamine B assay; type: functional; conditions: NCI-H522, 48 h
[2] = tested on: COLO 205; experiment: Growth inhibition of human COLO205 cells after 48 hrs by sulforhodamine B assay; type: functional; conditions: COLO 205, 48 h
[3] = tested on: NCI-H460; experiment: Growth inhibition of human NCI-H460 cells after 48 hrs by sulforhodamine B assay; type: functional; conditions: NCI-H460, 48 h
[4] = tested on: NCI-H23; experiment: Growth inhibition of human NCI-H23 cells after 48 hrs by sulforhodamine B assay; type: functional; conditions: NCI-H23, 48 h
[5] = tested on: HOP-62; experiment: Growth inhibition of human HOP62 cells after 48 hrs by sulforhodamine B assay; type: functional; conditions: HOP-62, 48 h
[6] = tested on: HOP-92; experiment: Growth inhibition of human HOP92 cells after 48 hrs by sulforhodamine B assay; type: functional; conditions: HOP-92, 48 h
[7] = Growth inhibition of human EKVX cells after 48 hrs by sulforhodamine B assay; type: functional
[8] = tested on: A549; experiment: Growth inhibition of human A549/ATCC cells after 48 hrs by sulforhodamine B assay; type: functional; conditions: A549, 48 h
[9] = tested on: SR; experiment: Growth inhibition of human SR cells after 48 hrs by sulforhodamine B assay; type: functional
[10] = tested on: RPMI-8226; experiment: Growth inhibition of human RPMI8226 cells after 48 hrs by sulforhodamine B assay; type: functional; conditions: RPMI-8226, 48 h
[11] = tested on: MOLT-4; experiment: Growth inhibition of human MOLT4 cells after 48 hrs by sulforhodamine B assay; type: functional; conditions: MOLT-4, 48 h
[12] = tested on: K562; experiment: Growth inhibition of human K562 cells after 48 hrs by sulforhodamine B assay; type: functional; conditions: K562, 48 h
[13] = tested on: HL-60(TB); experiment: Growth inhibition of human HL-60(TB) cells after 48 hrs by sulforhodamine B assay; type: functional; conditions: HL-60, 48 h
[14] = tested on: CCRF-CEM; experiment: Growth inhibition of human CCRF-CEM cells after 48 hrs by sulforhodamine B assay; type: functional
[15] = Inhibition of sheep brain tubulin polymerization using DAPI by fluorimetry; parameters: species or system Ovis aries
[16] = species: Ovis aries; experiment: Inhibition of sheep brain tubulin polymerization at 100 uM using DAPI by fluorimetry
[17] = tested on: T47D; experiment: Growth inhibition of human T47D cells after 48 hrs by sulforhodamine B assay; type: functional
[18] = tested on: MDA-MB-468; experiment: Growth inhibition of human MDA-MB-468 cells after 48 hrs by sulforhodamine B assay; type: functional; conditions: MDA-MB-468, 48 h
[19] = tested on: BT-549; experiment: Growth inhibition of human BT549 cells after 48 hrs by sulforhodamine B assay; type: functional; conditions: BT-549, 48 h
[20] = Growth inhibition of human Hs 578T cells after 48 hrs by sulforhodamine B assay; type: functional
[21] = tested on: MDA-MB-231; experiment: Growth inhibition of human MDA-MB-231 cells after 48 hrs by sulforhodamine B assay; type: functional; conditions: MDA-MB-231, 48 h
[22] = tested on: MCF7; experiment: Growth inhibition of human MCF7 cells after 48 hrs by sulforhodamine B assay; type: functional; conditions: MCF7, 48 h
[23] = tested on: SF-539; experiment: Growth inhibition of human SF539 cells after 48 hrs by sulforhodamine B assay; type: functional; conditions: SF-539, 48 h
[24] = tested on: SNB-75; experiment: Growth inhibition of human SNB75 cells after 48 hrs by sulforhodamine B assay; type: functional; conditions: SNB-75, 48 h
[25] = tested on: SF-295; experiment: Growth inhibition of human SF295 cells after 48 hrs by sulforhodamine B assay; type: functional; conditions: SF-295, 48 h
[26] = tested on: SF-268; experiment: Growth inhibition of human SF268 cells after 48 hrs by sulforhodamine B assay; type: functional; conditions: SF-268, 48 h
[27] = tested on: PC-3; experiment: Growth inhibition of human PC3 cells after 48 hrs by sulforhodamine B assay; type: functional; conditions: PC-3, 48 h
[28] = tested on: TK-10; experiment: Growth inhibition of human TK10 cells after 48 hrs by sulforhodamine B assay; type: functional; conditions: TK-10, 48 h
[29] = tested on: DU-145; experiment: Growth inhibition of human DU145 cells after 48 hrs by sulforhodamine B assay; type: functional; conditions: DU-145, 48 h
[30] = tested on: ACHN; experiment: Growth inhibition of human ACHN cells after 48 hrs by sulforhodamine B assay; type: functional
[31] = tested on: 786-0; experiment: Growth inhibition of human 786-0 cells after 48 hrs by sulforhodamine B assay; type: functional; conditions: 786-0, 48 h
[32] = tested on: UO-31; experiment: Growth inhibition of human UO31 cells after 48 hrs by sulforhodamine B assay; type: functional; conditions: UO-31, 48 h
[33] = tested on: RXF 393; experiment: Growth inhibition of human RXF393 cells after 48 hrs by sulforhodamine B assay; type: functional; conditions: RXF 393, 48 h
[34] = tested on: SN12C; experiment: Growth inhibition of human SN12C cells after 48 hrs by sulforhodamine B assay; type: functional
[35] = tested on: CAKI-1; experiment: Growth inhibition of human CAKI-1 cells after 48 hrs by sulforhodamine B assay; type: functional; conditions: CAKI-1, 48 h
[36] = tested on: A498; experiment: Growth inhibition of human A498 cells after 48 hrs by sulforhodamine B assay; type: functional; conditions: A498, 48 h
[37] = tested on: IGROV-1; experiment: Growth inhibition of human IGROV1 cells after 48 hrs by sulforhodamine B assay; type: functional; conditions: IGROV-1, 48 h
[38] = tested on: SK-OV-3; experiment: Growth inhibition of human SKOV3 cells after 48 hrs by sulforhodamine B assay; type: functional; conditions: SK-OV-3, 48 h
[39] = Growth inhibition of human NCI-ADR-RES cells after 48 hrs by sulforhodamine B assay; type: functional
[40] = tested on: OVCAR-8; experiment: Growth inhibition of human OVCAR8 cells after 48 hrs by sulforhodamine B assay; type: functional; conditions: OVCAR-8, 48 h
[41] = tested on: OVCAR-5; experiment: Growth inhibition of human OVCAR5 cells after 48 hrs by sulforhodamine B assay; type: functional; conditions: OVCAR-5, 48 h
[42] = tested on: OVCAR-4; experiment: Growth inhibition of human OVCAR4 cells after 48 hrs by sulforhodamine B assay; type: functional; conditions: OVCAR-4, 48 h
[43] = tested on: OVCAR-3; experiment: Growth inhibition of human OVCAR3 cells after 48 hrs by sulforhodamine B assay; type: functional; conditions: OVCAR-3, 48 h
[44] = tested on: SK-MEL-5; experiment: Growth inhibition of human SK-MEL-5 cells after 48 hrs by sulforhodamine B assay; type: functional; conditions: SK-MEL-5, 48 h
[45] = tested on: UACC-257; experiment: Growth inhibition of human UACC257 cells after 48 hrs by sulforhodamine B assay; type: functional; conditions: UACC-257, 48 h
[46] = tested on: Malme-3M; experiment: Growth inhibition of human MALME-3M cells after 48 hrs by sulforhodamine B assay; type: functional
[47] = tested on: LOX IMVI; experiment: Growth inhibition of human LOXIMVI cells after 48 hrs by sulforhodamine B assay; type: functional
[48] = tested on: UACC-62; experiment: Growth inhibition of human UACC62 cells after 48 hrs by sulforhodamine B assay; type: functional; conditions: UACC-62, 48 h
[49] = tested on: SK-MEL-28; experiment: Growth inhibition of human SK-MEL-28 cells after 48 hrs by sulforhodamine B assay; type: functional; conditions: SK-MEL-28, 48 h
[50] = tested on: SK-MEL-2; experiment: Growth inhibition of human SK-MEL-2 cells after 48 hrs by sulforhodamine B assay; type: functional; conditions: SK-MEL-2, 48 h
[51] = tested on: MDA-MB-435; experiment: Growth inhibition of human MDA-MB-435 cells after 48 hrs by sulforhodamine B assay; type: functional; conditions: MDA-MB-435, 48 h
[52] = tested on: M14; experiment: Growth inhibition of human M14 cells after 48 hrs by sulforhodamine B assay; type: functional; conditions: M14, 48 h
[53] = tested on: SW-620; experiment: Growth inhibition of human SW620 cells after 48 hrs by sulforhodamine B assay; type: functional; conditions: SW-620, 48 h
[54] = tested on: KM12; experiment: Growth inhibition of human KM12 cells after 48 hrs by sulforhodamine B assay; type: functional; conditions: KM12, 48 h
[55] = tested on: HT-29; experiment: Growth inhibition of human HT-29 cells after 48 hrs by sulforhodamine B assay; type: functional; conditions: HT-29, 48 h
[56] = tested on: HCT-116; experiment: Growth inhibition of human HCT116 cells after 48 hrs by sulforhodamine B assay; type: functional; conditions: HCT-116, 48 h
[57] = tested on: HCT-15; experiment: Growth inhibition of human HCT15 cells after 48 hrs by sulforhodamine B assay; type: functional; conditions: HCT-15, 48 h
[58] = Growth inhibition of human HCC2998 cells after 48 hrs by sulforhodamine B assay; type: functional; conditions: HCC 2998, 48 h

O=C(c1ccc2c(c1)Sc1ccccc1N2)c1c[nH]c2ccccc12
GI50 [1]: 0.248 µM
GI50 [2]: 0.435 µM
GI50 [3]: 0.429 µM
GI50 [4]: 0.943 µM
GI50 [5]: 0.67 µM
GI50 [6]: 0.97 µM
GI50 [7]: 11.6 µM
GI50 [8]: 0.634 µM
GI50 [9]: 0.382 µM
GI50 [10]: 0.761 µM
GI50 [11]: 3.75 µM
GI50 [12]: 0.395 µM
GI50 [13]: 0.382 µM
GI50 [14]: 0.38 µM
IC50 [15]: 38.9 µM
inhibition [16]: 66%
GI50 [17]: 0.502 µM
GI50 [18]: 0.314 µM
GI50 [19]: 0.398 µM
GI50 [20]: 0.702 µM
GI50 [21]: 1.11 µM
GI50 [22]: 0.293 µM
GI50 [23]: 0.576 µM
GI50 [24]: 0.326 µM
GI50 [25]: 0.323 µM
GI50 [26]: 1.5 µM
GI50 [27]: 0.654 µM
GI50 [28]: 2.14 µM
GI50 [29]: 1.42 µM
GI50 [30]: 1.78 µM
GI50 [31]: 1.9 µM
GI50 [32]: 1.03 µM
GI50 [33]: 1.27 µM
GI50 [34]: 0.888 µM
GI50 [35]: 0.462 µM
GI50 [36]: 0.251 µM
GI50 [37]: 0.62 µM
GI50 [38]: 0.533 µM
GI50 [39]: 0.247 µM
GI50 [40]: 1.04 µM
GI50 [41]: 1.75 µM
GI50 [42]: 16.5 µM
GI50 [43]: 0.404 µM
GI50 [44]: 0.408 µM
GI50 [45]: 0.581 µM
GI50 [46]: 0.997 µM
GI50 [47]: 0.446 µM
GI50 [48]: 0.532 µM
GI50 [49]: 0.647 µM
GI50 [50]: 0.397 µM
GI50 [51]: 0.112 µM
GI50 [52]: 0.372 µM
GI50 [53]: 0.406 µM
GI50 [54]: 0.365 µM
GI50 [55]: 0.368 µM
GI50 [56]: 0.404 µM
GI50 [57]: 0.489 µM
GI50 [58]: 0.976 µM

CCOC(=O)c1cc(C(=O)N2c3ccccc3Sc3ccccc32)n2c(C)cccc12
GI50 [1]: 1.82 µM
GI50 [2]: 3.13 µM
GI50 [3]: 3.75 µM
GI50 [4]: 3.55 µM
GI50 [5]: 6.14 µM
GI50 [6]: 2.69 µM
GI50 [7]: 5.84 µM
GI50 [8]: 3.81 µM
GI50 [9]: 2.42 µM
GI50 [10]: 2.16 µM
GI50 [11]: 3.72 µM
GI50 [12]: 3.78 µM
GI50 [13]: 3.08 µM
GI50 [14]: 2.39 µM
inhibition [16]: 31%
GI50 [17]: 4.16 µM
GI50 [19]: 2.93 µM
GI50 [20]: 1.5 µM
GI50 [21]: 6.04 µM
GI50 [22]: 3.03 µM
GI50 [23]: 4.13 µM
GI50 [24]: 1.88 µM
GI50 [25]: 4.89 µM
GI50 [26]: 7.11 µM
GI50 [27]: 2.2 µM
GI50 [28]: 6.73 µM
GI50 [29]: 8.22 µM
GI50 [30]: 4.85 µM
GI50 [31]: 4.17 µM
GI50 [32]: 3.85 µM
GI50 [33]: 2.77 µM
GI50 [34]: 5.53 µM
GI50 [35]: 6.23 µM
GI50 [36]: 1.91 µM
GI50 [37]: 5.78 µM
GI50 [38]: 4.04 µM
GI50 [39]: 2.17 µM
GI50 [40]: 3.76 µM
GI50 [41]: 65.8 µM
GI50 [42]: 7.93 µM
GI50 [43]: 4.24 µM
GI50 [44]: 2.55 µM
GI50 [45]: 3.24 µM
GI50 [46]: 6.13 µM
GI50 [47]: 4.57 µM
GI50 [48]: 2.55 µM
GI50 [49]: 3.5 µM
GI50 [51]: 0.672 µM
GI50 [52]: 2.6 µM
GI50 [53]: 3.14 µM
GI50 [54]: 2.94 µM
GI50 [55]: 2.95 µM
GI50 [56]: 2.89 µM
GI50 [57]: 4.52 µM
GI50 [58]: 6.71 µM
